Two molecules from patent publication US20150190416A1, “FILAGGRIN PRODUCTION PROMOTER, THERAPEUTIC AGENT FOR DISEASES ASSOCIATED WITH REDUCTION IN PRODUCTION OF FILAGGRIN, AND METHOD FOR SCREENING FOR SAID THERAPEUTIC AGENT” (KYOTO UNIVERSITY, priority 2012, published 2015) can be followed below.

Assay type in all cases: cell-based, human
One test deals with FLG monomer. Briefly: FLG monomer in three-dimensional cultured skin, Western blotting (Example 11). The settings on record: 1 μM, immunoblotting. On the procedure: In this example, the expression-increasing effect of Compound 1 on FLG monomer was examined by using a three-dimensional cultured skin. The expression of the FLG monomer was confirmed by Western blotting.
In this example, the same procedures as those in the steps 1) to 3) of Example 10 were conducted. It should be noted that as a medicament, D) Comparative Compound 3 (M344) was used, as well as A) Compound 1 and C) Comparative Compound 2 of Example 10.
4) The three-dimensional cultured skin obtained in the same manner as in the steps 1) to 3) of Example 10 was recovered, and was cut into pieces with scissors. Then, 100 μl of Lysis buffer (0.1 M Tris-HCl (pH 9.0), 6 M Urea, 1% 2-mercapto-ethanol, 1% SDS, 1 mM EDTA, and Protease inhibitor cocktail) were added and the cells were homogenized with an electrically powered pestle. The homogenized cells were centrifuged at 15,000 rpm at 4° C. for 20 minutes, and the supernatant was recovered to be used as a sample for measurement. The total protein in the sample was quantified by using a protein assay reagent (Bio-Rad Laboratories, Inc.) according to the manufacturer's protocol. The protein was adjusted so that each sample contained 15 μg protein/lane, and the samples were subjected to electrophoresis by SDS-PAGE (Invitrogen, NuPAE Novex Bis-Tris mini Gel 4 to 12%) under the conditions of 100 V and 2 hours. As a marker, Precision Plus Protein Standards (Bio-Rad Laboratories, Inc.) was used. The proteins separated by the electrophoresis were transferred to a PVDF membrane (blotting), and the expression of FLG monomer was confirmed by using an anti-FLG antibody (Filaggrin AKH1, Santa Crus). At that time, Anti-mouse IgG-HRP (GE Healthcare) was used as a secondary antibody, and Amersham ECL Plus Western Blotting Detection Reagents (GE Healthcare) was used as a color developer.
On the technique in general: A western blot detects proteins with antibodies after separation by electrophoresis.

The subject of test [1] is GPR142. Briefly: Action on adenylate cyclase activity (cAMP) in GPR142-overexpressing HEK293T cells (Examples 8 and 9). The following applies: GPR142-overexpressing HEK293T cells, 1,000 nM, forskolin 10 μM, IBMX 1 mM, 20 minutes. On the procedure: In this example, the cAMP production-suppressing effect of Compound 1 was confirmed.
1) 6×10^4 cells/well of HEK293T cells were plated on a collagen-coated 24-well plate, a culture medium containing DMEM medium (Invitrogen) supplemented with penicillin (50 μg/ml), streptomycin (50 μg/ml), and fetal bovine serum (FBS) (10%, v/v) was added to the plate, and the cells were cultured under the conditions of 37° C. and 5% CO2.
2) A GPR142PCXN mammalian expression vector was prepared in the same manner as in the step 2) of Example 7.
3) After culture for 1 day under the conditions of the step 1), HEK293T cells were transfected with 0.2 μg of the GPR142PCXN mammalian expression vector per well by using a transfection reagent Fugene™ HD (Promega Corporation) according to the manufacturer's protocol. As a control, cells transfected only with the PCXN mammalian expression vector were used.
4) After culture for 1 day after the transfection described above, 1 mM of isobutylmethylxanthine (IBMX), which was a cAMP phosphodiesterase inhibitory substance, was added to HEK293T cells, and thereafter, the cells were cultured for 10 minutes at 37° C.
5) Next, the medium was exchanged for the culture medium to which 0.1 nM to 1000 nM of a DMSO solution of Compound 1, 10 μM of forskolin, and 1 mM of IBMX per well were added, and the cells were further cultured for 20 minutes at 37° C. As a control, a solvent (vehicle), 10 μM of forskolin, and 1 mM of IBMX were added.
6) The cells cultured in the step 5) were lysed by 0.1 mol/L of HCl. The cAMP concentration within the cells was measured by using Cyclic AMP EIA Kit (Cayman Chemical Company) according to the manufacturer's protocol. The result is shown as the ratio (%) of the cAMP concentration in the cells treated with Compound 1 with respect to the cAMP concentration in the control example defined as 100%.
In this example, the cAMP production-suppressing effect of Compound 2 or 3 was confirmed.
HEK293T cells were cultured in the same manner as in the steps 1) to 4) of Example 8. Next, the cells were cultured in the same manner as in the step 5) of Example 8 except that, in the step 5) of Example 8, each of a methanol solution of Compound 3, a DMSO solution of Compound 2, and a DMSO solution of Comparative Compound 2 was used at 1,000 nM per well instead of Compound 1. The cAMP concentration in the cultured cells was measured in the same manner as in the step 6) of Example 8.

For test [2], the system named is GPR142. Briefly: Blocking effect by GPR142 RNAi in NHEK cells (Examples 5 and 6). The settings on record: GPR142 siRNA, compound 10 nM, 1 day. The procedure: In this example, it was confirmed that the expression-inducing effects of Compound 1 on GPR142 mRNA and FLG mRNA in NHEK cells were blocked by GPR142 RNAi.
1) 5×10^4 cells/well of NHEK cells (Invitrogen) were plated on a 24-well plate. Then, 500 μl of a culture medium containing a medium for proliferating normal human epidermal keratinocytes (HuMedia-KG2, KURABO INDUSTRIES LTD.) supplemented with hEGF (0.1 ng/ml), insulin (10 μg/ml), hydrocortisone (0.5 μg/ml), gentamycin (50 μg/ml), amphotericin B (50 ng/ml), and bovine brain pituitary extract (BPE) (0.4%, v/v) were added to the plate, and the cells were cultured under the conditions of 37° C. and 5% CO2.
2) After culture under the conditions of the step 1) for 1 day, the medium was exchanged for the culture medium of the step 1) to which CaCl2 (1.2 mM in terms of Ca) was further added as Ca, and culture was conducted under the conditions of 37° C. and 5% CO2. After culture for 1 day, the medium was exchanged for the same culture medium containing Ca, and culture was further conducted for 1 day.
3) The NHEK cells of the step 2) were transfected with 50 nM of siRNA per well of the 24-well plate by using a transfection reagent, Lipofectamine RNA Max (Invitrogen) according to the manufacturer's protocol.
The sequences of the used three kinds of GPR142 siRNAs and the sequences of the used control siRNAs (all the siRNAs are manufactured by Invitrogen) are described below.
4) After culture for 1 day after the transfection with siRNA in the step 3), the medium was exchanged for the culture medium of the step 1) to which a DMSO solution of Compound 1 was added at 10 nM per well, and culture was further conducted for 1 day. As a control, a solvent only (vehicle) was added.
5) An extraction reagent (TRIzol™, Invitrogen) was used, and according to the manufacturer's protocol, total RNA was extracted from each of cells treated with the medicament. A reverse transcriptase reagent (Prime Script™, Takara) was used, and according to the manufacturer's protocol, cDNA was prepared from the total RNA. Next, real-time PCR was conducted by using the following primers and SYBR™ Premix Ex Taq (Takara) with a CFX96 real-time PCR instrument according to the manufacturer's protocol, and the amounts of GPR142 mRNA and FLG mRNA expression were measured. The result of measurement is shown as a GAPDH ratio.
In this example, it was confirmed that the expression-inducing effects of Compound 2 or 3 on GPR142 mRNA and FLG mRNA in NHEK cells were blocked by GPR142 RNAi.
NHEK cells were transfected in the same manner as in Example 5 except that, in the steps 1) to 3) of Example 5, two kinds of GPR142 siRNAs and two kinds of control siRNAs, i.e., GPR142-1 (#HSS139493) and GPR142-3 (#HSS179846) and Control-1 (LOW GC, #129350-200), and Control-3 (HIGH GC, #129350-400) were used as GPR142 siRNAs and control siRNAs, respectively. After culture for 1 day after the transfection was conducted in the same manner as in the step 4) of Example 5, the medium was exchanged for the culture medium to which each of a DMSO solution of Compound 1, a DMSO solution of Compound 2, or a methanol solution of Compound 3 was added at 10 nM per well, and culture was further conducted for 1 day. As a control, a solvent only (vehicle) was added. Regarding each of cells treated with the medicament, real-time PCR was conducted to measure the amounts of GPR142 mRNA and FLG mRNA in the same manner as in the step 5) of Example 5. The results of the measurement are shown as a GAPDH ratio.

SMILES strings stand for the structures.

For the molecule `CN(C)c1ccc(C(=O)NCCCCCCC(=O)NO)cc1` [Comparative Compound 3, 4-Dimethylamino-N-(6-hydroxycarbamoylhexyl)benzamide, reference compound], in the test on FLG monomer, the “production of FLG monomer” value is “clear production of FLG monomer was not observed”. As for `COC(=O)CNC(Cc1ccccc1)C(=O)Nc1cc(-c2ccncc2)nn1C.Cl.Cl` (stereo not drawn) [Compound 3, Methyl 2-(1-(1-methyl-3-(pyridine-4-yl)-1H-pyrazol-5-ylamino)-1-oxo-3-phenylpropan-2-ylamino)acetate dihydrochloride], in the test with GPR142 [1], the “decrease of cAMP production” value is on record as “about 24%”. Also, the “induction of FLG mRNA expression: dependence on GPR142” value in the test with GPR142 [2] is listed as “mediated by GPR142”.
